According to US8119645B2, “Fungicide hydroximoyl-tetrazole derivatives” (Bayer Cropscience AG, priority 2006, dated 2012):

Assay: logP by reversed-phase HPLC (EEC Directive 79/831 Annex V.A8)
Type: physicochemical
Conditions: for LogP: HPLC C18, 40° C., 0.1% aqueous formic acid / acetonitrile gradient
Description: Temperature: 40° C.; Mobile phases: 0.1% aqueous formic acid and acetonitrile; linear gradient from 10% acetonitrile to 90% acetonitrile.

SMILES | LogP | chromatographic logP
Cc1nnnn1C(=NOCc1csc(NC(=O)NC2CCCC2)n1)c1ccsc1 [Compound 28] | 2.65 | 
CCCCCC(=O)Nc1nc(CON=C(c2ccc(-c3ccccc3)o2)n2nnnc2C)cs1 [Compound 133] | 3.8 | 
Cc1nnnn1C(=NOCc1csc(NC(=O)c2ccccc2)n1)c1ccsc1Cl [Compound 4] | 3.26 | 
Cc1nnnn1C(=NOCc1csc(N)n1)c1cc(-c2ccccc2)c(Cl)s1 [Compound 76] | 2.86 | 
CCCCCOC(=O)Nc1nc(CON=C(c2csc(-c3ccccc3)n2)c2nnnn2C)cs1 [Compound 167] | 4.29 | 
CCCC(=O)Nc1nc(CON=C(c2cc(-c3ccccc3)c(Cl)s2)n2nnnc2C)cs1 [Compound 79] | 4.18 | 
CCCCCC(=O)Nc1cccc(CO/N=C(\c2csc(-c3ccccc3)n2)c2nnnn2C)n1 [Compound 178, O-(2-Pentylcarbonylaminopyridin-6-yl)methyl-(2-phenyl-1,3-thiazol-4-yl)-(1-methyitetrazol-5-yl)methanone oxime] |  | 4.06
Cc1nnnn1C(=NOCc1cccc(NC(=O)C(C)(C)C)n1)c1ccsc1Cl [Compound 2] | 3.27 | 
Cc1ccc(C(=NOCc2csc(NC(=O)CCCc3ccccc3)n2)n2nnnc2C)o1 [Compound 60] | 3.4 | 
Cc1nnnn1C(=NOCc1csc(NC(=O)OCCc2ccccc2)n1)c1ccc(Cl)s1 [Compound 110] | 4.24 | 
CCc1nnnn1C(=NOCc1csc(NC(=O)C(C)(C)C)n1)c1ccsc1 [Compound 42] | 3.35 | 
CCCCCC(=O)Nc1nc(CON=C(c2ccsc2Cl)n2nnnc2C)cs1 [Compound 13] | 3.59 | 
Cc1nnnn1C(=NOCc1csc(NC(=O)NCc2ccccc2)n1)c1ccc(Cl)s1 [Compound 105] | 3.32 | 
Cc1ccc(C(=NOCc2csc(NC(=O)CCc3ccccc3)n2)n2nnnc2C)s1 [Compound 122] | 3.54 | 
Cc1ccc(C(=NOCc2csc(N)n2)n2nnnc2C)o1 [Compound 58] | 1.47 | 
CCCCCCCCC(=O)Nc1nc(CON=C(c2ccsc2)n2nnnc2C)cs1 [Compound 41] | 4.51 | 
Cc1nnnn1C(=NOCc1csc(NC(=O)CCCCl)n1)c1ccc(-c2ccccc2)o1 [Compound 136] | 3.39 | 
CCCCCC(=O)Nc1nc(CON=C(c2ccc(C)s2)n2nnnc2C)cs1 [Compound 120] | 3.76 | 
COCCOC(=O)Nc1nc(CON=C(c2ccsc2)n2nnnc2C)cs1 [Compound 49] | 2.3 | 
Cc1nnnn1C(=NOCc1csc(NC(=O)CCCCl)n1)c1ccsc1Cl [Compound 5] | 3 | 
Cn1nnnc1C(=NOCc1csc(NC(=O)Cc2ccccc2)n1)c1csc(-c2ccccc2)n1 [Compound 172] | 3.58 | 

SMILES | LogP | chromatographic logP
CCCCCOC(=O)Nc1cccc(CON=C(c2ccc(C)o2)n2nnnc2C)n1 [Compound 74] | 4.04 | 
C=CCC(=O)Nc1nc(CON=C(c2ccc(C)o2)n2nnnc2C)cs1 [Compound 69] | 2.42 | 
Cc1nnnn1C(=NOCc1csc(NC(=O)C2CC2)n1)c1cc(-c2ccccc2)c(Cl)s1 [Compound 77] | 4.03 | 
Cc1nnnn1C(=NOCc1csc(NC(=O)C2CCCCC2)n1)c1ccsc1Cl [Compound 8] | 4.48 | 
COCCOCC(=O)Nc1nc(CON=C(c2ccc(Cl)s2)n2nnnc2C)cs1 [Compound 111] | 2.88 | 
Cc1nnnn1C(=NOCc1cccc(NC(=O)c2ccccc2)n1)c1ccsc1Cl [Compound 1] | 3.26 | 
Cc1nnnn1C(=NOCCc1csc(N)n1)c1ccsc1 [Compound 50] | 1.16 | 
Cc1nnnn1C(=NOCc1csc(NC(=O)C2CCCCC2)n1)c1ccsc1 [Compound 29] | 3.32 | 
COCCOCC(=O)Nc1nc(CON=C(c2ccc(C)s2)n2nnnc2C)cs1 [Compound 129] | 2.6 | 
Cc1ccc(C(=NOCc2csc(NC(=O)c3ccccc3)n2)n2nnnc2C)o1 [Compound 63] | 2.96 | 
CCCC(=O)Nc1nc(CON=C(c2ccc(-c3ccccc3)s2)n2nnnc2C)cs1 [Compound 56] | 3.87 | 
CCCCCC(=O)Nc1nc(CON=C(c2ccc(-c3ccc(Cl)c(Cl)c3)o2)n2nnnc2C)cs1 [Compound 85] | 4.78 | 
CCCCCC(=O)Nc1nc(CON=C(c2ccc(Br)s2)n2nnnc2C)cs1 [Compound 92] | 3.92 | 
Cc1nnnn1C(=NOCc1csc(NC(=O)Cc2ccccc2)n1)c1ccc(Br)s1 [Compound 93] | 3.53 | 
Cc1ccc(C(=NOCc2csc(NC(=O)Cc3ccccc3)n2)n2nnnc2C)s1 [Compound 116] | 3.35 | 
Cc1ccc(C(=NOCc2csc(NC(=O)NCCc3ccccc3)n2)n2nnnc2C)s1 [Compound 118] | 3.33 | 
C=CCNC(=O)Nc1nc(CON=C(c2ccsc2)n2nnnc2C)cs1 [Compound 27] | 2.22 | 
Cc1nnnn1C(=NOCc1csc(NC(=O)C(C)C)n1)c1ccc(-c2ccccc2)o1 [Compound 134] | 3.27 | 
COCCOC(=O)Nc1cccc(CON=C(c2ccc(C)o2)n2nnnc2C)n1 [Compound 73] | 2.53 | 
Cc1nnnn1C(=NOCc1csc(NC(=O)Cc2ccccc2)n1)c1ccc(Cl)s1 [Compound 103] | 3.62 | 
Cc1ccc(C(=NOCc2csc(NC(=O)C(C)(C)C)n2)n2nnnc2C)s1 [Compound 115] | 3.42 | 

SMILES | LogP | chromatographic logP
Cc1nnnn1C(=NOCc1csc(NC(=O)Cc2ccccc2)n1)c1ccc(-c2ccccc2)s1 [Compound 54] | 4.08 | 
CCCCCC(=O)Nc1nc(CON=C(c2cc(-c3ccccc3)c(Cl)s2)n2nnnc2C)cs1 [Compound 80] | 4.88 | 
Cc1nnnn1C(=NOCc1csc(N)n1)c1ccc(Cl)s1 [Compound 100] | 2.02 | 
Cc1nnnn1C(=NOCc1csc(NC(=O)Cc2ccccc2)n1)c1ccsc1 [Compound 32] | 2.9 | 
Cc1ccc(C(=NOCc2csc(NC(=O)CCc3ccccc3)n2)n2nnnc2C)o1 [Compound 61] | 3.15 | 
Cc1ccc(C(=NOCc2csc(NC(=O)NCc3ccccc3)n2)n2nnnc2C)s1 [Compound 117] | 3.17 | 
COCCOCC(=O)Nc1nc(CON=C(c2ccsc2)n2nnnc2C)cs1 [Compound 48] | 2.28 | 
CCCCCOC(=O)Nc1cccc(CON=C(c2ccsc2Cl)n2nnnc2C)n1 [Compound 16] | 4.19 | 
CCc1nnnn1C(=NOCc1csc(NC(=O)C(C)C)n1)c1ccsc1 [Compound 43] | 3.04 | 
Cc1nnnn1C(=NOCc1cccc(NC(=O)C(C)(C)C)n1)c1ccsc1 [Compound 37] | 3 | 
CCCCCCCCNC(=O)Nc1nc(CON=C(c2ccsc2)n2nnnc2C)cs1 [Compound 23] | 3.26 | 
Cc1nnnn1C(=NOCc1csc(NC(=O)C(C)C)n1)c1ccc(Br)s1 [Compound 94] | 3.22 | 
Cc1nnnn1C(=NOCc1csc(N)n1)c1ccc(Br)s1 [Compound 86] | 2.07 | 
Cc1nnnn1C(=NOCc1csc(NC(=O)C2CCCC2)n1)c1ccsc1Cl [Compound 7] | 3.3 | 
C=CCC(=O)Nc1nc(CON=C(c2ccc(Br)s2)n2nnnc2C)cs1 [Compound 97] | 3.08 | 
Cc1nnnn1C(=NOCc1csc(NC(=O)C(C)(C)C)n1)c1ccc(Cl)s1 [Compound 102] | 3.73 | 
Cc1nnnn1C(=NOCc1csc(NC(=O)COCc2ccccc2)n1)c1ccc(Br)s1 [Compound 95] | 3.76 | 
CCCCCC(=O)Nc1cccc(CON=C(c2ccc(C)s2)n2nnnc2C)n1 [Compound 127] | 3.79 | 
CCCCCCCCC(=O)Nc1nc(CON=C(c2cc(-c3ccccc3)c(Cl)s2)n2nnnc2C)cs1 [Compound 78] | 5.94 | 
Cc1ccc(C(=NOCc2cccc(NC(=O)OCCc3ccccc3)n2)n2nnnc2C)s1 [Compound 125] | 4.02 | 
CCCCCC(=O)Nc1cccc(CON=C(c2ccsc2)n2nnnc2C)n1 [Compound 36] | 3.39 | 

SMILES | LogP | chromatographic logP
CCCC(=O)Nc1nc(CON=C(c2ccc(-c3ccc(Cl)c(Cl)c3)o2)n2nnnc2C)cs1 [Compound 82] | 4.11 | 
Cc1nnnn1C(=NOCc1csc(NC(=O)CCc2ccccc2)n1)c1ccsc1Cl [Compound 9] | 3.45 | 
Cc1nnnn1C(=NOCc1csc(NC(=O)OCc2ccccc2)n1)c1ccsc1 [Compound 46] | 3.24 | 
Cc1nnnn1C(=NOCc1csc(NC(=O)NCCc2ccccc2)n1)c1ccc(Cl)s1 [Compound 104] | 3.64 | 
Cc1nnnn1C(=NOCc1csc(NC(=O)C(C)C)n1)c1ccsc1 [Compound 31] | 2.55 | 
Cc1nnnn1C(=NOCc1csc(NC(=O)NC(C)C)n1)c1ccsc1 [Compound 26] | 2.32 | 
COCCOC(=O)Nc1cccc(CON=C(c2ccsc2Cl)n2nnnc2C)n1 [Compound 17] | 2.66 | 
CCCCCC(=O)Nc1nc(CON=C(c2ccc(-c3ccccc3)s2)n2nnnc2C)cs1 [Compound 57] | 4.58 | 
Cn1nnnc1C(=NOCc1csc(NC(=O)C2CC2)n1)c1csc(-c2ccccc2)n1 [Compound 168] | 3.85 | 
Cc1nnnn1C(=NOCc1csc(NC(=O)CCc2ccccc2)n1)c1ccc(Br)s1 [Compound 89] | 3.76 | 
Cc1nnnn1C(=NOCc1csc(NC(=O)CCc2ccccc2)n1)c1ccc(Cl)s1 [Compound 108] | 3.85 | 
Cc1ccc(C(=NOCc2csc(NC(=O)OCCc3ccccc3)n2)n2nnnc2C)s1 [Compound 123] | 3.88 | 
Cc1nnnn1C(=NOCc1csc(NC(=O)C2CCCC2)n1)c1ccsc1 [Compound 39] | 3.05 | 
Cc1ccc(C(=NOCc2csc(N)n2)n2nnnc2C)s1 [Compound 113] | 1.8 | 
Cc1ccc(C(=NOCc2cccc(NC(=O)NCCc3ccccc3)n2)n2nnnc2C)s1 [Compound 128] | 3.06 | 
Cc1nnnn1C(=NOCc1csc(NC(=O)C(C)(C)C)n1)c1ccc(Br)s1 [Compound 87] | 3.74 | 
Cc1nnnn1C(=NOCc1csc(NC(=O)OCCc2ccccc2)n1)c1ccsc1 [Compound 44] | 3.46 | 
Cc1nnnn1C(=NOCc1csc(NC(=O)CCCc2ccccc2)n1)c1ccc(Br)s1 [Compound 88] | 4.04 | 
COCCOC(=O)Nc1nc(CON=C(c2ccc(Br)s2)n2nnnc2C)cs1 [Compound 99] | 3.1 | 
Cc1nnnn1C(=NOCc1cccc(NC(=O)c2ccccc2)n1)c1ccsc1 [Compound 38] | 3.01 | 
